Data on 1 molecule can be found in publication PMC10245146, “CNS4 causes subtype‐specific changes in agonist efficacy and reversal potential of permeant cations in NMDA receptors” (Pharmacology Research & Perspectives, 2023).

Type in all cases: cell-based
Test [1] relates to GluN1/2A/2B triheteromeric (1/2AB) NMDA receptors. The test is described as follows: TEVC agonist dose-response, Xenopus oocytes expressing 1/2AB. The text has this:
(§1) NMDA receptor constructs: cDNA encoding the NMDA receptor1a subunit (GluN1a) was obtained from Dr. Nakanishi (Kyoto, Japan). cDNA encoding the GluN2B (pci_sepGluN2B), originally developed in the Malinow lab,[33] was purchased from Addgene (cat# 23998), Cambridge, MA. cDNA encoding the GluN2C and GluN2D were purchased from GenScript, New Jersey, USA. Mutated GluN1, 2A and 2B cDNA constructs capable of assembling as GluN1/2A/2B triheteromeric (1/2AB) receptors[34] were obtained from Dr. Paoletti (Laboratoire de Neurobiologie, CNRS). These constructs have been previously tested for 1/2AB receptor activity of GluN1/2A receptor‐selective potentiators.[35] […] Plasmids were linearized with NotI (GluN1a and all five GluN1 mutants) or Avrll (GluN2B), or BstB1 (GluN2C and GluN2D) and transcribed in vitro with T7 (GluN1a, GluN1/2A, GluN2B, GluN2C & GluN2D), and SP6 (GluN1 mutants) RNA polymerase using the mMessage mMachine transcription kits (Invitrogen by Thermo Fisher Scientific).
(§2) Stage IV frog oocytes were obtained from Xenopus‐I, (Ann Arbor, MI, USA). NMDA receptor subunit cRNAs were suspended in nuclease free sterile water. GluN1A, GluN2B, GluN2C, GluN2D and GluN1/2A/2B cRNAs were mixed in a ratio of 1:1–3. 50 nL of the final cRNA mixture was microinjected (40–70 ng total) into the oocyte cytoplasm. Oocytes were incubated in ND‐96 solution at 18°C prior to electrophysiological recordings (2–5 days).
(§3) Electrophysiological responses were measured using a standard two‐microelectrode voltage‐clamp workstation (Warner Instruments model OC‐725C) designed to provide a fast clamp of large cells. The recording buffer contained 116 mM NaCl, 2 mM KCl, 0.3 mM BaCl2, and 5 mM HEPES, pH 7.4. Response magnitude was determined in Xenopus oocytes expressing different NMDA receptor subunits (GluN1/2A, 1/2B, 1/2C, 1/2D, and 1/2A/2B) by the steady plateau response elicited by bath application of different agonist concentrations. […] All data points were obtained from the steady state currents unless stated otherwise. Dose–response relationships were fit to an appropriate curve‐fitting equation using GraphPad Prism‐7. Non‐linear regression was used to calculate EC50, IC50, and fold change or percentage maximal response. Curves were fit using the following equations as performed in the previous studies, [37]: Y=100/1+10^LogEC50−XorY=Bottom+Top−Bottom/1+10^LogEC50−X . Statistical significance was determined at the overall alpha level 0.05, using appropriate statistical methods as described in all figure captions. Technical and biological replicates are explicitly mentioned in each figure legend, as n = X (Y). X represents technical repeats (number of traces) and Y represents biological repeats (number of oocytes or HEK293T cells studied). […]

Test [2] has as its target T1, GluN1/2A NMDA receptors (UniProt P35439+Q12879).
T1 construct: expressed in transfected cells; host or cells: Xenopus oocytes (cRNA injection)
The test is described as follows: TEVC agonist dose-response, Xenopus oocytes expressing 1/2A.
Excerpt: as §1, §2, §3

The target in test [3] is T1, GluN1/2A NMDA receptors. Description: Current-voltage (I-V) relationship, Xenopus oocytes expressing 1/2A. To be noted: for Difference in reversal potential (∆Erev) between W and WO CNS4 / Difference in reversal potential (∆Erev) between WO and W CNS4: 100 μM CNS4; for Reversal potential (Erev): with 100 μM CNS4. As to the method:
There are two sets of recording solutions used for the I‐V assay: solutions with normal (1) and low (2) Ca^2+ concentrations. The normal Ca^2+ solutions contained (mM): 115 NaCl, 1 KCl, 1.8 CaCl2, 10 HEPES. PH was adjusted to 7.2. Low calcium solutions contained 0.018 mM CaCl2 and other components were the same as normal Ca^2+ solution. To study the effects of CNS4 in the absence of extracellular Na^+, NaCl was replaced with impermeable agent, N‐methyl‐D‐glucamine (NMDG, […]). HCl was used to dissolve the NMDG and to adjust the PH to 7.2. NMDG‐containing solutions are termed Nafree. […] There were four different agonist solutions used for each set of Ca^2+ recordings: (1) Agonist, (2) Agonist+CNS4, (3) Agonist in Nafree solution, (4) Agonist+CNS4 in Nafree solution. Each solution was applied to the oocytes in sequential order and the same order was followed for all I‐V recordings. Low Ca^2+ experiments were carried out in the same way as normal Ca^2+ experiments, except that they had 0.018 mM Ca^2+ in all four agonist and recording solutions. Steady state current responses evoked by these solutions at each voltage step were measured. Reversal potentials (Erev) were obtained from x‐intercept values when y = 0 after fitting the I‐V data using a third order polynomial, non‐linear curve fitting equation Y=B0+B1^*X+B2^*X^2+B3^*X^3 . Erev obtained from each oocyte with different agonists were compared in a pairwise manner. These differences were then averaged. Paired or unpaired student t‐test was performed to compare the data as mentioned in each figure legend.
FIGURE 5 Effect on CNS4 on agonist induced current directions in 1/2A receptors. Current –Voltage (I‐V) relationship of 1/2A receptors was studied with normal (A) and low (B) CaCl2 containing extracellular solutions. […] (C) Comparison of reversal potentials values. Dark and light blue circles indicate normal and low CaCl2 experiments, respectively. Dark and light red squares indicate equivalent I‐V experiments with NMDG (Nafree). Dotted and thick lines denote the absence (empty circles or squares) and presence (filled circles or squares) of 100 μM CNS4, respectively. Traces (Ai&ii, Bi&ii) represent the current response at −90 mv. N = 5 (5) & n = 7(7) for normal & low Ca^2+ assays, respectively. Erev obtained from each oocyte with different agonists were compared in a pairwise manner. Paired student t‐test was performed to compare the data presented at Ci. Unpaired student's t‐test was performed to compare the difference in reversal potentials (triangles). *p < .05, **p < .01, ***p < .001, […].

Molecules are shown by their SMILES.

T1 sequence (Q12879 23-1464, other chains not shown): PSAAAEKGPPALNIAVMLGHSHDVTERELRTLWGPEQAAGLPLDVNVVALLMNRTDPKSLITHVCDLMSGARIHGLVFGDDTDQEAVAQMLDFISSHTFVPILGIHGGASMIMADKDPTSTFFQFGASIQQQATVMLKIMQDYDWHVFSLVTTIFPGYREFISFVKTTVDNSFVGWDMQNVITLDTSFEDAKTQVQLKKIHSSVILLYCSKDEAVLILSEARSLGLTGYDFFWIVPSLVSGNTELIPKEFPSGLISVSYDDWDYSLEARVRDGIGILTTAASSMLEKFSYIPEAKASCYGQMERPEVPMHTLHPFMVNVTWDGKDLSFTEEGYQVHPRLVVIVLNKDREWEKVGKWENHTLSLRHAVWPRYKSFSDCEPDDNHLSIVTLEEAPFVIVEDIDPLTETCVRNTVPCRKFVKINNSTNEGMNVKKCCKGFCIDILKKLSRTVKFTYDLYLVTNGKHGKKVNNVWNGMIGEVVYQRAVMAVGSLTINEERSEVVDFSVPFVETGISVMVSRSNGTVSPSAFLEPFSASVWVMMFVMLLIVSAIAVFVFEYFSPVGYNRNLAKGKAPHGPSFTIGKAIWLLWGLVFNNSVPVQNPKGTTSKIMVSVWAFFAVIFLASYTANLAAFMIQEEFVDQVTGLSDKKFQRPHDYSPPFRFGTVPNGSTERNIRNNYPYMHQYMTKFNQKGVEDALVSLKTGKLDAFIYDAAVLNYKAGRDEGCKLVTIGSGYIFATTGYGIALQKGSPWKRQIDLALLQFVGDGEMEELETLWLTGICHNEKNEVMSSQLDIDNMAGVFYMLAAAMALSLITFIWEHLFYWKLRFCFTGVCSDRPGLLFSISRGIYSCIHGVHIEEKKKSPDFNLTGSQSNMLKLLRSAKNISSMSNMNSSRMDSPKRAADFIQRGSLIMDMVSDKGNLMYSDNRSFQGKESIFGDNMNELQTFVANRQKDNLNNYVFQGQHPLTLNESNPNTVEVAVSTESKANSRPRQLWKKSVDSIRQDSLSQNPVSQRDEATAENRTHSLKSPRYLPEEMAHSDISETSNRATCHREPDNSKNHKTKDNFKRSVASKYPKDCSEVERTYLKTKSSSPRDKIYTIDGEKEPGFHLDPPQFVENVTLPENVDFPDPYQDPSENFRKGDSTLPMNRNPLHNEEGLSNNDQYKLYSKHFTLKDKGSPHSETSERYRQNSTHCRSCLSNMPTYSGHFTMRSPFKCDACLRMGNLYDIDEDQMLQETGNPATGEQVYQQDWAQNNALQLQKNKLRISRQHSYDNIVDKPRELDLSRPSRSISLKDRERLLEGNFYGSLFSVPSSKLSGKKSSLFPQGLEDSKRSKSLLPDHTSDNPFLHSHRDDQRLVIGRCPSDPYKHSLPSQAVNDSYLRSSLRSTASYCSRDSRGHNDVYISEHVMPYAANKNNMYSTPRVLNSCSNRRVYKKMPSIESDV

Take `O=C(NC(=S)N1CCCCC1c1cccnc1)c1ccc(F)cc1` (centres unmarked) [CNS4]: the “Reduction in glutamate efficacy with vs without CNS4” value in test [1] (30 μM CNS4) was 5.3 fold. Also, the “Glycine efficacy: relative fold change in current at highest glycine concentration” value in test [1] (with 30 μM CNS4, 100 μM glutamate constant, relative to 1 μM glycine, p = .0019) was found to be 1.37 ± 0.08 fold; on GluN1/2A NMDA receptors [2] (with 30 μM CNS4, 100 μM glutamate constant, relative to 1 μM glycine, average ± SEM, p = .19) it was 2.59 ± 0.36 fold. Further, the “Glutamate efficacy: relative fold change in current at highest glutamate concentration” value was found to be 2.79 ± 0.43 fold in test [1] (with 30 μM CNS4, 100 μM glycine constant, relative to 1 μM glutamate, p = .0001) and 2.95 ± 0.45 fold on GluN1/2A NMDA receptors [2] (with 30 μM CNS4, 100 μM glycine constant, relative to 1 μM glutamate, p = .2898). In addition, the “100 μM glutamate induced relative current amplitude (glutamate efficacy)” value at GluN1/2A NMDA receptors [2] (absence of glycine, presence of CNS4, n = 6(3)) turned out to be 0.04 ± 0.02 fold. In addition, the Glutamate efficacy on GluN1/2A NMDA receptors [2] (in the presence of 30 μM glycine and 30 μM CNS4, n = 9 (3)) was 297.8 ± 71.06 fold. The “Difference in reversal potential (∆Erev) between W and WO CNS4” value at GluN1/2A NMDA receptors [3] (low Ca2+, Nafree, n = 7) is −7.32 ± 3.95 mV; at GluN1/2A NMDA receptors [3] (low Ca2+, with Na+, n = 6) it was 8.76 ± 3.15 mV. For the same molecule, the “Difference in reversal potential (∆Erev) between WO and W CNS4” value on GluN1/2A NMDA receptors [3] (normal Ca2+, Nafree, n = 3) was −6.79 ± 1.98 mV; on GluN1/2A NMDA receptors [3] (normal Ca2+, with Na+, n = 4), 24.85 ± 3.26 mV. For the same molecule, the “Reversal potential (Erev)” value at GluN1/2A NMDA receptors [3] (1.8 mM (normal) Ca2+, with Na+, 100 μM glutamate + glycine, without CNS4 −12.05 ± 8.18, p = .004) was 10.49 ± 8.23 mV; at GluN1/2A NMDA receptors [3] (low Ca2+, Nafree, without CNS4 −61.38 ± 3.99, p = .113) it was −68.71 ± 4.82 mV; on GluN1/2A NMDA receptors [3] (normal Ca2+, Nafree (NMDG), without CNS4 −18.16 ± 5.09, p = .16) it was −32.93 ± 7.03 mV.
